The values that follow come from US6355410B1, “Method of reducing cell proliferation by inhibiting the Na+/H+ exchanger and inducing apoptosis” (priority 1998, dated 2002).

Experiment [1] has as its system primary ALL patient leukaemic cells. The experiment in a line: Intracellular pH (FRIM and flow cytometry) of fresh ALL patient leukaemic cells incubated with HMA. It counts as cell-based, human. To be noted: 10^-4M HMA, 1h, 3h and 5h, values set at 5.0. Here is the method:
(§1) Intracellular pH was measured by both FRIM and flow cytometry, while apoptosis was measured by annexin-V and TUNEL. […] For this reason, pHi values for 1h, 3h and 5h were set at 5.0. After 1h, the proportion of cells incubated with HMA undergoing apoptosis was about 85% using annexin-V and about 60% using the TUNEL technique.
(§2) Measurement of pHi for hemopoietic cells has been described in detail elsewhere (8). Briefly, intracellular pH was measured by both flow cytometry and FRIM by incubating cells with carboxy SemiNaphthoRhodaFluor-1 acetoxymethyl ester, acetate (carboxy SNARF-1 AM, Molecular Probes, Eugene, Oreg.) for 15 min at room temperature. SNARF is excited at 488 nm and emits at 580 nm and 640 nm. The ratio of the emission wavelengths 640/580 was used (8) to estimate the pHi from a calibration curve. The calibration curve was performed using the nigericin clamp technique (21). […] Flow cytometric results were analyzed using WinList Software (Verity Software House Inc. Topsham, ME) to obtain fluorescence ratio measurements. For both flow cytometry and FRIM analysis, the calibration curves were obtained and sample pHi values determined from the fluorescence ratio values using Table Curve software (SPSS Inc., Chicago, Ill.). […]

In experiment [2] the test system is KG-1a cells. The experiment in a line: RNA degradation in KG-1a cells by denaturing RNA gel electrophoresis. It counts as cell-based, human. The conditions noted are these: 10^-4M HMA.
Experiment [3] relates to primary ALL patient leukaemic cells. Kind of experiment: Apoptosis (annexin-V and TUNEL) of fresh ALL patient leukaemic cells incubated with HMA. It counts as cell-based, human. Here is the method:
as §1
Two methods were used to determine if reduction in pHi induced apoptosis. The first used annexin-V conjugated to fluorescein isothiocyanate (FITC) (Pharmingen, San Diego, Calif.) to determine the translocation of phosphatidylserine from the inside to the outside of the plasma membrane. Cells were counter-stained with propidium iodide (PI) to determine the proportion of necrotic cells. Cell staining was performed according to the manufacturer's instructions. The second technique used terminal deoxynucleotidyl transferase (TdT)-mediated dUTP nick-end labeling (TUNEL) of fragmented DNA. Fluorochrome (FITC)-labelling of DNA (Boehringer Mannhein, Germany) was performed according to the manufacturer's instructions and measurements performed by flow cytometry.
The amiloride analogue, HMA (Sigma Chemicals, St. Louis, Mo.) was dissolved in dimethylsulphoxide (DMSO) and a stock solution (10^−3M) prepared in DMEM. Cells were incubated at concentrations ranging from 10^−7M to 10^−4M for varying periods of time specified in the results. After incubation, cells were washed and aliquoted according to the type of measurement (pHi or apoptosis) performed. Controls included cells not treated with HMA.

Experiment [4] has as its system normal peripheral blood cells. It counts as cell-based, human. Here is the method:
(§3) Normal peripheral blood cells were incubated in the absence or presence of the NHE-1 inhibitor, 5-(N,N-hexamethylene)-amiloride (HMA), at concentrations ranging from 10^−7M to 10^−4M for up to 5h. Cells were then aliquoted so that pHi and apoptotic measurements could be performed. In these experiments, pHi was measured using both flow cytometry and fluorescence ratio imaging microscopy (FRIM). […] The proportion of necrotic cells measured by propidium iodide (PI) remained constant at about 5% in the absence or presence of HMA for each time point measured. […] It is interesting to note that both methods measured about 25% apoptotic cells when pHi was reduced to about 6.8. As shown in the next section, a pHi of 6.8 appears to be a critical value below which increased apoptosis occurs.
Two methods were used to determine if reduction in pHi induced apoptosis. The first used annexin-V conjugated to fluorescein isothiocyanate (FITC) (Pharmingen, San Diego, Calif.) to determine the translocation of phosphatidylserine from the inside to the outside of the plasma membrane. Cells were counter-stained with propidium iodide (PI) to determine the proportion of necrotic cells. Cell staining was performed according to the manufacturer's instructions. The second technique used terminal deoxynucleotidyl transferase (TdT)-mediated dUTP nick-end labeling (TUNEL) of fragmented DNA. […]

Experiment [5] relates to normal peripheral blood cells. The experiment in a line: Intracellular pH (flow cytometry and FRIM) of normal peripheral blood cells incubated with HMA. It counts as cell-based, human. Here is the method:
as §3, with “As shown in the next section, a pHi of 6.8 appears to be a critical value below which increased apoptosis occurs.” left out
as §2, with “temperature.” for “temperature. SNARF is excited at 488 nm and emits at 580 nm and 640 nm. The ratio of the emission wavelengths 640/580 was used (8) to estimate the pHi from a calibration curve. The calibration curve was performed using the nigericin clamp technique (21).”

For the next experiment, the target named is NHE-1 (Homo sapiens, UniProt P19634). The conditions noted are these: literature reference 19; cited from earlier work.
Experiment [6] concerns CEM cells. The experiment in a line: Intracellular pH of CEM cells incubated with HMA. Format: cell-based, human. To be noted: 10^-4M HMA, 5h, n=4, without HMA 6.9±0.08 after 5h. Here is the method:
(§4) Leukaemic cell lines (KG-1a and CEM) were incubated for varying periods of time with 10^−4M HMA and pHi and apoptosis measured. For both cell lines, in the absence of HMA, pHi ranged from 7.43±0.1 at time zero to 6.9±0.08 after 5h of incubation. However, after 5h with HMA, the pHi had decreased to 5.6±0.07 (n=4) for KG-1a and 6.1±0.06 (n=4) for CEM cells. In the absence of HMA, the percentage of KG-1a and CEM cells undergoing apoptosis, measured by annexin-V, ranged from 2% to 9% for the duration of the experiment, whereas by 5h in the presence of HMA, the percentage of KG-1a or CEM cells undergoing apoptosis ranged from 70-80%. […]
as §2, with “temperature.” for “temperature. SNARF is excited at 488 nm and emits at 580 nm and 640 nm. The ratio of the emission wavelengths 640/580 was used (8) to estimate the pHi from a calibration curve. The calibration curve was performed using the nigericin clamp technique (21).”

Experiment [7] deals with KG-1a cells. The experiment in a line: Intracellular pH of KG-1a cells incubated with HMA. Format: cell-based, human. The conditions noted are these: 10^-4M HMA, 5h, n=4, without HMA 6.9±0.08 after 5h. Here is the method: as §4
as §2, with “temperature.” for “temperature. SNARF is excited at 488 nm and emits at 580 nm and 640 nm. The ratio of the emission wavelengths 640/580 was used (8) to estimate the pHi from a calibration curve. The calibration curve was performed using the nigericin clamp technique (21).”

Experiment [8] relates to CEM cells. Kind of experiment: Apoptosis (annexin-V) of CEM cells incubated with HMA. It counts as cell-based, human. To be noted: 10^-4M HMA, 5h, without HMA 2% to 9%. Here is the method:
(§5) Leukaemic cell lines (KG-1a and CEM) were incubated for varying periods of time with 10^−4M HMA and pHi and apoptosis measured. For both cell lines, in the absence of HMA, pHi ranged from 7.43±0.1 at time zero to 6.9±0.08 after 5h of incubation. However, after 5h with HMA, the pHi had decreased to 5.6±0.07 (n=4) for KG-1a and 6.1±0.06 (n=4) for CEM cells. In the absence of HMA, the percentage of KG-1a and CEM cells undergoing apoptosis, measured by annexin-V, ranged from 2% to 9% for the duration of the experiment, whereas by 5h in the presence of HMA, the percentage of KG-1a or CEM cells undergoing apoptosis ranged from 70-80%.
(§6) The following human leukemic cell lines were originally obtained from ATCC (Rockville, Md.): KG-1a (BM acute myelogenous leukemia), Jurkat (acute T-cell leukemia), Molt-4 (PB acute lymphoblastic leukemia), CEM (PB acute lymphoblastic leukemia), K562 (chronic myeloid leukemia), THP-1 (acute monocytic leukemia), Nalm-6 (B-cell leukemia). All cell lines were cultured in Dulbecco's Modified Eagles Medium (DMEM) containing 10% heat-inactivated fetal bovine serum (FBS). Only cells in log phase growth were used.
(§7) Two methods were used to determine if reduction in pHi induced apoptosis. […]

Experiment [9] concerns KG-1a cells. Kind of experiment: Apoptosis (annexin-V) of KG-1a cells incubated with HMA. Format: cell-based, human. To be noted: 10^-4M HMA, 5h, without HMA 2% to 9%. The procedure:
as §5, §6, §7

For experiment [10], the system named is normal peripheral blood (PB) cells. Kind of experiment: Proportion of cells in S-phase (propidium iodide) of peripheral blood incubated with phorbol ester. Format: cell-based, human. The conditions noted are these: untreated PB 1.19%±0.34%. Here is the method:
(§8) The pHi and the percentage of cells in S-phase of the cell cycle were simultaneously determined in aliquots of the same sample, using propidium iodide labeling. Prior to analysis, peripheral blood was also incubated with phorbol ester to activate the NHE-1. […] Furthermore, there was a direct correlation between pHi and proportion of cells in S-phase in both normal and neoplastic haemopoietic cells of various origins (FIG. 4). Thus, intracellular alkalinisation is associated with an increased proliferation and possibly transformation of haemopoietic cells. We hypothesized that unregulated proliferation of leukaemic cells might, at least in part, be due to suppression of normal apoptotic mechanisms. In this case, inhibitors of the NHE-1 would be expected to induce apoptosis in leukaemic cells, and we therefore examined the effects of NHE-1 inhibitors upon such cells.
Normal PB cells were incubated for 5 min with 10^−6 M phorbol-12-myristate-13-acetate (PMA, Sigma Chemical Company, St. Louis, Mo.) to non-specifically activate the NHE-1. […]
The proportion of cells in S-phase of the cell cycle was determined using the propidium iodide technique using the CycleTEST Plus DNA reagent kit (Becton-Dickinson, San Jose, Calif.). Data were acquired by flow cytometry, and analyzed using the Modfit LT software program (Verity Software House Inc).

Experiment [11] has the same test system. The experiment in a line: Intracellular pH (SNARF, flow cytometry) of peripheral blood incubated with phorbol ester. Format: cell-based, human. The conditions noted are these: PB incubated with phorbol ester (10^-6 M PMA, 5 min); unstimulated PB 7.03±0.04. The procedure: as §8, with “In this case, inhibitors of the NHE-1 would be expected to induce apoptosis in leukaemic cells, and we therefore examined the effects of NHE-1 inhibitors upon such cells.” left out
Measurement of pHi for hemopoietic cells has been described in detail elsewhere (8). Briefly, intracellular pH was measured by both flow cytometry and FRIM by incubating cells with carboxy SemiNaphthoRhodaFluor-1 acetoxymethyl ester, acetate (carboxy SNARF-1 AM, Molecular Probes, Eugene, Oreg.) for 15 min at room temperature. […] Flow cytometric results were analyzed using WinList Software (Verity Software House Inc. Topsham, ME) to obtain fluorescence ratio measurements. For both flow cytometry and FRIM analysis, the calibration curves were obtained and sample pHi values determined from the fluorescence ratio values using Table Curve software (SPSS Inc., Chicago, Ill.).

[12] abbreviates: ALL patient cells, 10^-4M HMA, 1h.

Bounds are passed on as bounds.

Chain of NHE-1 (P19634 whole entry, species assumed): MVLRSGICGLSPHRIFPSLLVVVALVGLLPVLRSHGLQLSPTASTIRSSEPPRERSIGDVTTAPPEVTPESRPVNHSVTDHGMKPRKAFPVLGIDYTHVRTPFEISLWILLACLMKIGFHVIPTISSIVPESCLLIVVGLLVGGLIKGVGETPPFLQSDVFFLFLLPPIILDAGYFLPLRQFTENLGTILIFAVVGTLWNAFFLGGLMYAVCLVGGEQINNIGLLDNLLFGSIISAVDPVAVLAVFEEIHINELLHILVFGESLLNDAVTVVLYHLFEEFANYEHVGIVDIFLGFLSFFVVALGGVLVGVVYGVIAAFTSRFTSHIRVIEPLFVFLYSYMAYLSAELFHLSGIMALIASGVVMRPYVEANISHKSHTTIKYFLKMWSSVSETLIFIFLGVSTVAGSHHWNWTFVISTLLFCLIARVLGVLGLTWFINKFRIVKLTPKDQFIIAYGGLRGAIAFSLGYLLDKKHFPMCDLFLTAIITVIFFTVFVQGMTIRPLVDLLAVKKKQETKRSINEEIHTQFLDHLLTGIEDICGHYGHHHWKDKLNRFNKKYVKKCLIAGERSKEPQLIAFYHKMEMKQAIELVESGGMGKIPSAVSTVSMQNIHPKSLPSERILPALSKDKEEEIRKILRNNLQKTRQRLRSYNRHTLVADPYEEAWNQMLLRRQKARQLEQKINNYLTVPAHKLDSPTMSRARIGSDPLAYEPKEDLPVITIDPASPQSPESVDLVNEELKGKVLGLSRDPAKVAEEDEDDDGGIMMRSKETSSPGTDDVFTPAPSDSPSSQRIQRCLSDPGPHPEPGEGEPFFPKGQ

Turning to `NC(N)=NC(=O)c1nc(Cl)c(N2CCCCCC2)nc1N` [HMA, 5-(N,N-hexamethylene)-amiloride], the “pHi measured by flow cytometry” value in experiment [1] is “too low to calibrate”. Also, in the experiment with KG-1a cells [2], the “onset of RNA degradation after addition” value is “began to degrade between 30 min and 1h”; the “time to total RNA degradation” value is listed as not above 3 h. In experiment [3] (setting [12]), the “proportion of cells undergoing apoptosis, TUNEL” value was “about 60%” and the “proportion of cells undergoing apoptosis, annexin-V” value is given as “about 85%”. Also, the “apoptotic cells, both methods (annexin-V and TUNEL)” value in [3] (ALL patient cells, 10^-4M HMA, 5h) is listed as “over 90%”. The “sensitivity of primary ALL cells versus normal PB” value in experiment [3] (differential effect of HMA between normal and acute lymphoblastic leukaemic cells) was “greater sensitivity to HMA than normal PB”. In addition, the “time to induction of apoptosis” value in [3] (primary leukemic cells) is recorded as not above 1 h. Also, the “cells either dead or undergoing apoptosis” value in experiment [3] (primary leukemic cells, between 3 and 5 h of incubation) was “more than 90%”. Also, the “proportion of apoptotic cells, time and concentration dependence” value in [4] (HMA 10^-7M to 10^-4M, up to 5h, annexin-V and TUNEL) was “greatest proportion of apoptotic cells was found after 5h incubation with 10^−4M HMA”. Further, the apoptotic cells result in experiment [4] (normal PB with HMA, both methods (annexin-V, TUNEL), when pHi reduced to about 6.8) is listed as “about 25%”. Further, in [5] (HMA 10^-7M to 10^-4M, up to 5h, flow cytometry and FRIM), the “inhibition (decrease of pHi), time and concentration dependence” value is “greatest inhibition occurred at 5h, using the highest HMA concentration”. Besides, the “pHi reduced to” value in [5] (normal PB incubated with HMA, pHi at which about 25% apoptotic cells were measured) is reported as “about 6.8”. Besides, on NHE-1, the “potency and specificity of NHE-1 inhibition relative to amiloride” value is “greater potency and specificity of NHE-1 inhibition than amiloride itself”. Further, the pHi in the experiment with CEM cells [6] worked out at 6.1±0.06. Also, the pHi in the experiment with KG-1a cells [7] is on record as 5.6±0.07. The “percentage of cells undergoing apoptosis, annexin-V” value in the experiment on CEM cells [8] was 70-80%. Further, the “percentage of cells undergoing apoptosis, annexin-V” value in the experiment with KG-1a cells [9] is recorded as 70-80%.
Turning to `CCCCCCCCCCCCCC(=O)O[C@@H]1[C@@H](C)[C@@]2(O)[C@@H](C=C(CO)C[C@]3(O)C(=O)C(C)=C[C@@H]23)[C@@H]2C(C)(C)[C@]12OC(C)=O` [phorbol ester, phorbol-12-myristate-13-acetate], the “proportion of cells in S-phase” value in [10] was 8.7%±0.17%. For the same molecule, the pHi in experiment [11] amounted to 7.32±0.043.
With `CCN(c1nc(N)c(C(=O)N=C(N)N)nc1Cl)C(C)C` [EIPA, 5-(N-ethyl-N-isopropyl) amiloride], the “potency and specificity of NHE-1 inhibition relative to amiloride” value at NHE-1 is “greater potency and specificity of NHE-1 inhibition than amiloride itself”.
